Measured values published in PMC12040169 (PLOS Biology, 2025).

Assay: in vitro
Conditions: human, hela cells, % viability

Compound	viability at 28.5 h, 10 µM [%]	viability at 28.5 h, 10 µM (bulk resorufin, single well) [%]
Nn1c(SCC(=O)Nc2ccc3c(c2)OCO3)nnc1-c1ccccn1 [CBK267550]	101	–
Cc1cc(C)n(CC(=O)Nc2nc(CN3CCC(C)CC3)cs2)n1 [CBK305592]	101	–
O=c1[nH]c2c(c(=O)[nH]1)[C@H]1[C@H](O)[C@H](O)C[C@H]1[C@@H](c1ccccc1)N2 [CBK303239]	88.1	–
Clc1ccc(SCCCSc2ncccn2)cc1 [CBK266400]	96.8	–
O=C(Nc1cccc([N+](=O)[O-])c1)c1ccc2nc(-c3ccccn3)c(-c3ccccn3)nc2c1 [CBK265137]	101	–
COc1ccc2[nH]c3c(c2c1)CCN(C=O)C31CCN(Cc2cccc(Cl)c2)C1 (centres unmarked) [CBK040376]	97.3	–
O=C(Cc1ccc(Cl)c(Cl)c1)N1CCCC2(CCN(C(=O)c3ccoc3)C2)C1 (centres unmarked) [CBK131619]	87.4	–
Cn1ncnc1CCNS(=O)(=O)c1cccc(C(=O)N2CCCCC2)c1 [CBK306731]	101	–
O=C(N/N=C/c1ccccc1Cl)c1ccc(C(=O)N/N=C/c2ccccc2Cl)cc1 [CBK261698]	108	–
O=C(NC1CCN(Cc2ccccc2)C1)c1ccc(F)cc1 (centres unmarked) [CBK283044]	97.8	–
CN1CCC(C(=O)NC(=O)NC2CCCCC2)CC1 [CBK034825]	112	–
CC(NC(=O)c1cc(C(F)(F)F)n(C)n1)c1cccnc1 (centres unmarked) [CBK282203]	97.6	–
CC(C)(C)C(=O)N1CCC(c2nnc(-c3ccsc3)o2)CC1 [CBK283378]	89.5	–
COc1ccc(OC(=O)c2cccc(F)c2)c(C(C)=O)c1 [CBK088044]	89	–
COc1ccc(Oc2nccc(N3CCCN(Cc4ccc(C(F)(F)F)cc4)CC3)n2)cc1OC [CBK084152]	98.2	–
O=C(C1CCCO1)N1CCCC(c2cc3cccnc3[nH]2)C1 (centres unmarked) [CBK284978]	101	–
COc1nccnc1N1CCN(CCCn2c(=O)[nH]c3ccccc32)CC1 [CBK084226]	95.8	–
O=C(O)CCCCc1nn(-c2ccc(Cl)c(Cl)c2)c2c1CCC2 [CBK012529]	97.5	–
COc1ccccc1C(=O)N1CCN(Cc2cc(OC)c(O)c(OC)c2)CC1 [CBK263484]	101	–
CSc1nc(O)c(C(c2ccc(C(=O)O)cc2)c2c(O)nc(SC)nc2O)c(O)n1 [CBK265288]	94.8	–
O=C(O)CCSCc1ccc([N+](=O)[O-])cc1 [CBK262359]	103	–
CNc1cc(C(=O)N[C@@H]2CCOC[C@H]2Oc2ccc(CO)cc2)ccn1 [CBK306606]	98.1	–
O=C(O)c1cccc(Sc2nc3cc(Cl)c(Cl)cc3nc2N2CCCC2)c1 [CBK093588]	118	–

Compound	viability at 28.5 h, 10 µM [%]	viability at 28.5 h, 10 µM (bulk resorufin, single well) [%]
Cc1cccc(NC(=O)CN2C(=O)S/C(=C\c3cc(C)n(-c4ccc(N(C)C)cc4)c3C)C2=O)c1 [CBK264586]	96.9	–
OCCc1ccc(Oc2ncc(C(F)(F)F)cc2Cl)cc1 [CBK161643]	94.6	–
Cc1ccc(C2(C(=O)NCCn3ccnc3C)CCOCC2)cc1 [CBK281858]	95	–
CCCCc1ccc(-c2cc3ncccc3nc2N)cc1 [CBK081198]	96.3	–
Cc1ccc(Cn2nc(C(=O)Nc3ccc4c(c3)OCO4)c3ccccc32)cc1 [CBK047847]	–	87
O=C(CN1CCC(c2ccccc2F)CC1)N1CCCCC1 [CBK283577]	97.3	–
FC(F)(F)c1nc2ccccc2nc1SCc1ccccc1 [CBK103732]	87	–
Cc1ccc(NC(=O)c2ccccc2OCC(=O)NC23CC4CC(CC(C4)C2)C3)cc1Cl [CBK265091]	101	–
C[C@H](Nc1cncc(-c2cccc(CO)c2)n1)c1ccccc1 [CBK065512]	102	–
Cc1cc(NC(=O)c2ccc3c(c2)OCCO3)c2ccccc2n1 [CBK122739]	103	–
CCCc1[nH]nc(O)c1Cc1ccccc1C(F)(F)F [CBK075037]	92.7	–
CCc1c(C)nc2ccc(Br)cc2c1SCCC(=O)O [CBK126914]	113	–
Nc1ncnc(Nc2ccc(Nc3ccccc3)cc2)c1[N+](=O)[O-] [CBK267347]	88.9	–
Cn1ccc(C(=O)NC(Cc2ccsc2)c2nccs2)cc1=O (centres unmarked) [CBK285143]	87	–
COc1cc(Cl)c(C)cc1NC(=O)c1ncn(-c2ccccc2)n1 [CBK269456]	101	–
C[C@@H](Cn1nc2c(cc1=O)CCCC2)NC(=O)Cc1ccc(F)cc1 [CBK284526]	100	–
O=C(c1cccs1)n1ccc(-c2ccc3c(c2)CCO3)n1 [CBK006090]	97.6	–
O=C(CCn1cnc2cc(-c3noc(-c4cnccn4)n3)ccc21)N1CCCC1 [CBK288595]	104	–
COC(=O)c1ccc(NC(=O)C2Cc3ccccc3CN2S(=O)(=O)c2cccs2)cc1 (centres unmarked) [CBK265693]	92.7	–
CCOc1cc(CNCc2ccc(C(=O)O)cc2)ccc1OC [CBK270029C]	89.7	–
C/C(=N\N=C1/NC(=O)C(CC(=O)O)S1)c1ccc(CC(C)C)cc1 (centres unmarked) [CBK006661]	93.5	–
N#CCCn1cc(C(=O)N2CCCCC2)c(-c2cccs2)n1 [CBK306194]	86.5	–
COc1cccc(CNC(=O)c2cn[nH]c2-c2cccc(C)c2)c1 [CBK288056]	102	–

Compound	viability at 28.5 h, 10 µM [%]	viability at 28.5 h, 10 µM (bulk resorufin, single well) [%]
CN(C)S(=O)(=O)N1CCN(c2ccnc3cc(Cl)ccc23)CC1 [CBK269785]	99.2	–
O=C(O)C1CCN(C(=O)Nc2ccccc2Cl)CC1 [CBK161407]	106	–
NS(=O)(=O)c1ccc(Nc2nc(-c3cccs3)cs2)cc1 [CBK262502]	96.2	–
CC1CCCCC1NC(=O)Cn1ncn2c(cc3ccsc32)c1=O (centres unmarked) [CBK284196]	91.8	–
Cc1cccc(OC(C)C(=O)Nc2ccc(S(=O)(=O)N3CCOCC3)cc2)c1 (centres unmarked) [CBK269609]	106	–
O=C(O)c1cccc(S(=O)(=O)N2CCC(C(=O)O)CC2)c1 [CBK267199]	93.6	–
COC(=O)c1ccc(C)c(NS(=O)(=O)c2cc(Cl)ccc2Cl)c1 [CBK077971]	90.9	–
O=C(O)CCC/N=C1/CCCc2ccccc2N1 [CBK261435]	104	–
COc1ccc(-c2ccccc2CC2(C(=O)NCc3cccs3)CCOCC2)cc1 [CBK286429]	92.3	–
COc1ccc([N+](=O)[O-])cc1COc1ccc2c(C(F)(F)F)cc(=O)oc2c1 [CBK265173]	96.4	–
O=c1[nH]cnc2ccc(Br)cc12 [CBK026537]	93.7	–
C=CCn1ncc(CN(C)Cc2nc3ccccc3[nH]2)c1C [CBK283169]	96	–
O=C(Nc1ccccc1C(=O)Nc1ccccc1C(=O)O)c1ccccc1 [CBK261551]	91.1	–
O=C1COc2ccccc2CCCC[C@@H]2CN(C(=O)CN3C(=O)CNC3=O)CC[C@H]2N1 [CBK292047]	92.7	–
Cn1nccc1C(=O)NC(Cc1ccsc1)c1nccs1 (centres unmarked) [CBK285138]	98.1	–
CCCC12CN3CC(CCC)(CN(C1)C3c1ccc([N+](=O)[O-])cc1)C2=O (centres unmarked) [CBK264481]	101	–
Cc1cc(-c2nc3ncccc3o2)ccc1NC(=O)c1ccc2c(c1)OCCO2 [CBK270104]	94.1	–
CN(C)S(=O)(=O)N(CC(=O)Nc1ccc2c(c1)OCO2)c1ccccc1 [CBK268481]	110	–
COc1ccc(OC)c(C2=NO[C@@](CC(=O)O)(C(=O)NC3CCCCC3)C2)c1 [CBK286672]	92.1	–
O=C(O)C1CC(O)CN1S(=O)(=O)c1ccc([N+](=O)[O-])cc1 (centres unmarked) [CBK266158]	100	–
CCc1nn(CC(=O)NC(C)(C)C)c(=O)c2cc3sc(C)cc3n12 [CBK284124]	83.9	–
CCN(CC(O)COc1cc(C)c(Cl)c(C)c1)S(=O)(=O)O (centres unmarked) [CBK026767N]	106	–
Cc1nc([N+](=O)[O-])c(N2CCN(C)CC2)n1Cc1ccccc1 [CBK261421]	100	–

Compound	viability at 28.5 h, 10 µM [%]	viability at 28.5 h, 10 µM (bulk resorufin, single well) [%]
Nc1ncc(-c2ccccc2)nc1-c1ccc(O)cc1 [CBK064030]	96.7	–
CC(=O)Nc1cccc(-c2cc(Nc3ccc(N4CCN(Cc5ccccc5)CC4)cc3)ncn2)c1 [CBK037709]	81.8	–
O=C(CN1CCC(C(=O)NC(c2ccccc2)c2ccsc2)CC1)c1ccc(F)cc1 (centres unmarked) [CBK148432]	86.9	–
Nc1ncnc2[nH]c(SCc3nc4ccccc4n3Cc3ccccc3)nc12 [CBK264148]	103	–
Cc1cc(CNC(=O)/C=C/c2ccc(C(C)C)cc2)no1 [CBK149614]	103	–
CCCCN(C)c1nccnc1-c1ccncc1 [CBK037655]	93.4	–
CCC1(C)Cc2sc3[nH]c(=O)c(SCC(N)=O)nc3c2CO1 (centres unmarked) [CBK020581]	87.3	–
COc1ccc(CCNCC2OCCc3cccc(OC)c32)cc1OC (centres unmarked) [CBK024032C]	118	–
C=CCn1c(C)c(C)n2c3c(=O)n(CCN4CCOCC4)c(=O)n(C)c3nc12 [CBK269778]	90.8	–
NC(=O)c1c[nH]c2ccccc12 [CBK027556]	80.7	–
Cc1cc(NC(=O)C(C)N(C)CCOc2ccccc2Cl)no1 (centres unmarked) [CBK304466]	107	–
COc1cc(/C=C2\C(=O)NC(=O)N(c3cc(C)ccc3C)C2=O)ccc1O [CBK264161]	–	91
CCOc1ccc(NCc2ccccc2NS(=O)(=O)c2ccc(C)cc2)cc1 [CBK056876]	93.6	–
Cc1nnc(CN2CCOc3ccc(Br)cc3C2)o1 [CBK304079]	99	–
Fc1ccc(C2CCCN(CCCOc3cccc(F)c3)C2)cc1 (centres unmarked) [CBK016228B]	102	–
Cc1ccc(C(=O)N2CCN(Cc3cc(=O)n4ccsc4n3)CC2)cc1 [CBK305057]	107	–
COc1ccc2sc(N(Cc3cccnc3)C(=O)C3COc4ccccc4O3)nc2c1 (centres unmarked) [CBK294424]	107	–
O=C(CSc1nnc(SCc2cccc3ccccc23)s1)Nc1ccccc1C(F)(F)F [CBK267575]	103	–
CCOc1ccc(C(C)(N)C(=O)O)cc1 (centres unmarked) [CBK261362]	121	–
Clc1ccc(-c2ccc(/C=N/c3ccc4oc(-c5ccccc5)nc4c3)o2)cc1 [CBK261969]	102	–
